Data reported in patent US20120302546A1, “NOVEL SULFAMIDES EXHIBITING NEUROPROTECTIVE ACTION AND METHODS FOR USE THEREOF” (FOX CHASE CHEMICAL DIVERSITY CENTER, INC., priority 2010, published 2012).

Columns and labels:
Hippocampal Cultures [1] = assay: Neuroprotection from glutamate excitotoxicity, CFDA neuronal viability assay; type: cell-based, rat; conditions: for EC50: Rattus norvegicus, 30 μM glutamate, Hippocampal Cultures, read-out: NP from Glutamate CFDA EC50
Method: Pharmacology: Hydroxyethyl sulfamides attenuate glutamate-mediated neuronal viability. As an example, compound II, shown above, is shown to attenuate a decrease in carboxyfluorescein diacetate (CFDA) produced by acute treatment with glutamate in FIG. 1. For these studies, day 20 hippocampal cultures derived from E18 rats were treated for 5 min with 30 μM glutamate. Following removal of the glutamate, cultures were treated with various concentrations of compound II and the CFDA neuronal viability assay was conducted 24 hours after the initiation of treatment. The dotted line labeled “control” represents the mean CFDA value for control culture receiving no treatment. The dotted line labeled “carisbamate” represents the mean CFDA value for the reference compound carisbamate, a putative neuroprotective, anticonvulsant. For the CFDA measurements, RFU is the abbreviation for relative fluorescent units. The reference anticonvulsant compound carisbamate was tested at 100 μM, as lower concentrations were ineffective.
(§1) Cell cultures: All compounds are screened with dissociated hippocampal cultures derived from embryonic day 18 rats as the primary test system. With this preparation, primary neurons are used to test for toxicity as well as neuroprotection in a highly relevant experimental system to epilepsy. In brief, hippocampal tissue are obtained commercially through Brain Bits (Springfield, Ill.) and cultures prepared as previously described by Brewer (Brewer, G. J. Serum-free B27/neurobasal medium supports differentiated growth of neurons from the striatum, substantia nigra, septum, cerebral cortex, cerebellum and dentate gyms, J. Neurosci. Res. 1995, 42, 674-683.). The hippocampal neurons are platted at low density (10,000 cell/well) in a 96-well format and maintained in serum-free medium consisting of Neurobasal Medium supplemented with B27 and GlutaMAX (Gibco). Pre-coated poly-L-lysine coated plates are used because of the preferential adherence and survival of hippocampal neurons on this matrix support.
(§2) Carboxyfluorescein (CFDA) was used a vital stain for all cell toxicity and neuroprotection studies. With the use of the CytoFluor fluorimeter, the CFDA assay was employed to assess the viability of neurons. CFDA is a dye that becomes fluorescent upon cell entry and cleavage by cytosolic esterases (Petroski, R. E.; Geller, H. M Selective labeling of embryonic neurons cultures on astrocyte monolayers with 5(6)-carboxyfluorescein diacetate (CFDA). J. Neurosci. Methods 1994, 52, 23-32.). Neuronal specificity is obtained relative to astrocytes because the cleaved dye is extruded extracellularly by glia with time, while dye in neurons remains intracellular. […] To further assess the culture responses, a propidium iodide method was used as previously described (Sarafian, T. A.; Kouyoumjian, S.; Tashkin, D.; Roth, M. D. Synergistic cytotoxicity of 9-tetrahydrocannabianol and butylated hydroxyanisole, Tox. Letters, 2002. 133, 171-179.) to measure the number of dead cells. Propidium iodide becomes fluorescent when binding to the DNA of dead cells. Cultures were treated on day 2 with the test agent and then the two assays were conducted after a […] test period. For all assays, a 96-well format was used. For the screen, log concentration-effect studies were conducted from 10 nM to 1 mM with 8 replications. The duration of the test period was five days. Cultures were given a complete change of medium prior to the initiation of the treatment period.
Potent neuroprotection is the distinguishing characteristic that separates this program's anticonvulsants from all other commercial drugs for epilepsy. The experimental details and the rationale for the implemented assays are essential in differentiating these compounds from that of others. The central objective of all neuroprotective assays was their relevancy to excitotoxicity and oxidative stress related to epilepsy. […]

Hippocampal Cultures [2] = assay: Neuroprotection from glutamate excitotoxicity, propidium iodide cell death assay; type: cell-based, rat; conditions: for EC50: Rattus norvegicus, Hippocampal Cultures, read-out: NP from Glutamate PI EC50
Method: Hydroxyethyl sulfamides attenuate glutamate-mediated cell death: As an example of HES compounds that prevent cell death associated with glutamate, compound II is shown to attenuate an increase in propidium iodide (PI) produced by acute treatment with glutamate in FIG. 4. For these studies, day 20 hippocampal cultures derived from E18 rats were treated for 5 min with 30 μM glutamate. Following removal of the glutamate, cultures were treated with various concentrations of compound II and the propidium iodide method for measuring cell death was conducted 24 hours after the initiation of treatment. The dotted line labeled “control” represents the mean PI value for control culture receiving no treatment. The dotted line labeled “carisbamate” represents the mean PI value for the reference compound carisbamate, a putative neuroprotective anticonvulsant. The amount of carisbamate used was 100 μM and this concentration had the maximally observed efficacy for this compound. RFU is an abbreviation for relative fluorescent units. Day 15 is the number of days that the cultures were maintained in vitro before conducting the experiment.
as §1, §2
Potent neuroprotection is the distinguishing characteristic that separates this program's anticonvulsants from all other commercial drugs for epilepsy. The experimental details and the rationale for the implemented assays are essential in differentiating these compounds from that of others. […]

Hippocampal Cultures [3] = assay: Neuroprotection from hydrogen peroxide (oxidative stress), CFDA assay; type: cell-based; conditions: Rattus norvegicus, 10 μM Hydrogen Peroxide, read-out: NP from HP CFDA EC50
Description: as §1
(§3) Potent neuroprotection is the distinguishing characteristic that separates this program's anticonvulsants from all other commercial drugs for epilepsy. The experimental details and the rationale for the implemented assays are essential in differentiating these compounds from that of others. The central objective of all neuroprotective assays was their relevancy to excitotoxicity and oxidative stress related to epilepsy. Both the amount of glutamate and hydrogen peroxide used in the assays, as well as the time of treatment and duration of the experiment, were designed to be relevant to epilepsy. Further, all time parameters employed in these studies were empirically determined to be within the limits of reversible toxic events, yet using amounts of glutamate and hydrogen peroxide that were relevant to the disease. In regard to glutamate toxicity, a critical feature was the duration of treatment of the hippocampal neurons. The rational for using a short 5 min treatment with glutamate was based on the observation of Randall and Thayer (Randall, R. D.; Thayer, S. A. Glutamate-induced calcium transient triggers calcium overload and neurotoxicity in rat hippocampal neurons, J. Neurosci. 1992, 12, 1882-1895). […] The rationale is that this intense burst of glutamate and resulting calcium overload is relevant to seizures and therefore was important data to capture in the screening assay. The amount of glutamate (30 μM) employed in our screening was based on the basal levels of glutamate observed in microdialysis measurements of hippocampus from epileptogenic patients (Cavus et al. Decreased hippocampal volume on MRI is associated with increased extracellular glutamate in epilepsy patients, Epilepsia, 2008, 49, 1358-1366.). In regard to hydrogen peroxide, the amount employed (10 μM) was detected in the hippocampus of rats after kainate-induced status epilepticus (Jarrett et. al., Mitochondrial DNA damage and impaired base excision repair during epileptogenesis, Neurobiol. Dis. 2008, 30, 130-138). To produce neural damage and death with these amounts of glutamate and hydrogen peroxide, the cultures were changed to a medium with significant depletion of antioxidant components in the defined medium supplement B-27 just prior to treatment with the compounds. This was performed to obtain a significant and reproducible toxic signal in the hippocampal neurons and because loss of antioxidant control may be a component of epileptogenesis (Waldbaum and Patel, Mitochondria, oxidative stress and temporal lobe epilepsy, Epilepsy Res. 2010 88, 23-45.; Wu et al., Mitochondrial DNA mutation-elicited oxidative stress, oxidative damage, and altered gene expression in cultured cells of patients with MERRF syndrome, Mol. Neurobiol. 2010, 41, 256-266.). Neuroprotection studies with hydrogen peroxide were conducted with cultures that were between day 12 and day 18. Studies of neuroprotection glutamate were conducted between day 19 and day 22. […]

Hippocampal Cultures [4] = assay: Neuroprotection from hydrogen peroxide (oxidative stress), propidium iodide assay; type: cell-based; conditions: Rattus norvegicus, 10 μM Hydrogen Peroxide, read-out: NP from HP PI EC50
Description: as §1, §3

[5] = day 20 hippocampal cultures, 5 min 30 μM glutamate, CFDA assay 24 hours after initiation of treatment (FIG. 1-3)

Structure (SMILES)	EC50 (Hippocampal Cultures [3]) [µM]	EC50 (Hippocampal Cultures [4]) [µM]	effect on glutamate-mediated decrease in neuronal viability (CFDA) (Hippocampal Cultures [1]; [5])	effect on glutamate-mediated increase in cell death (propidium iodide) (Hippocampal Cultures [2]; day 20 hippocampal cultures, 5 min 30 μM glutamate, PI 24 hours after initiation of treatment (FIG. 4))	EC50 (Hippocampal Cultures [1]) [µM]	EC50 (Hippocampal Cultures [2]; 30 μM glutamate) [µM]	effect on glutamate-mediated decrease in neuronal viability (CFDA) (Hippocampal Cultures [1]; concentrations lower than 100 μM)	concentration with the maximally observed efficacy (propidium iodide) (Hippocampal Cultures [2]; hippocampal cultures, 30 μM glutamate) [µM]
NS(=O)(=O)NCC(O)c1ccccc1Cl (stereo not drawn) [compound II]			attenuate	attenuate				
NS(=O)(=O)N1CC(O)(c2csc3ccccc23)C1 [Example 9, 3-Benzo[b]thiophen-3-yl-3-hydroxy-azetidine-1-sulfonamide]	> 300	> 300			0.1	1		
NC(=O)OC[C@@H](O)c1ccccc1Cl [carisbamate, reference compound]							ineffective	100
NS(=O)(=O)NCC(O)c1ccsc1 (stereo not drawn) [Example 3, 2-(thiophen-3-yl)-2-hydroxyethylsulfamide]	30	30			> 300	30		
NS(=O)(=O)NCC(O)c1csc2ccccc12 (stereo not drawn) [Example 7, 2-(benzothiophen-3-yl)-2-hydroxyethylsulfamide]					30	> 300		
NS(=O)(=O)NCC(O)c1csc2ccccc12 (stereo not drawn) [compound IV]			efficacious					
NS(=O)(=O)NCC(O)c1ccccc1Cl (stereo not drawn) [Example 1, 2-(2-Chlorophenyl)-2-hydroxyethylsulfamide]					30	100		
NS(=O)(=O)NCC(O)c1cc(Cl)ccc1Cl (stereo not drawn) [Example 5, 2-(2,5-dichlorophenyl)-2-hydroxyethylsulfamide]	> 300	> 300			> 300	30		
CC(O)(CNS(N)(=O)=O)c1ccccc1Cl (stereo not drawn) [Example 8, 2-(2-chlorophenyl)-2-methyl-2-hydroxyethylsulfamide]	100	0.1			> 300	300		

Further lines, with some results ahead:

EC50 (Hippocampal Cultures [3]) [µM]	EC50 (Hippocampal Cultures [4]) [µM]	Structure (SMILES)	effect on glutamate-mediated decrease in neuronal viability (CFDA) (Hippocampal Cultures [1]; [5])	effect on glutamate-mediated increase in cell death (propidium iodide) (Hippocampal Cultures [2]; day 20 hippocampal cultures, 5 min 30 μM glutamate, PI 24 hours after initiation of treatment (FIG. 4))	EC50 (Hippocampal Cultures [1]) [µM]	EC50 (Hippocampal Cultures [2]; 30 μM glutamate) [µM]	effect on glutamate-mediated decrease in neuronal viability (CFDA) (Hippocampal Cultures [1]; concentrations lower than 100 μM)	concentration with the maximally observed efficacy (propidium iodide) (Hippocampal Cultures [2]; hippocampal cultures, 30 μM glutamate) [µM]
100	30	NS(=O)(=O)NCC(O)c1cc2ccccc2s1 (stereo not drawn) [Example 4, 2-(benzothiophen-2-yl)-2-hydroxyethylsulfamide]			100	10		
300	> 300	NS(=O)(=O)NC[C@H](O)c1ccccc1Cl [Example 13, (R)-2-(2-Chlorophenyl)-2-hydroxyethylsulfamide]			0.01	10		
10	0.01	NS(=O)(=O)NCC(O)c1ccccc1F (stereo not drawn) [Example 6, 2-(2-fluorophenyl)-2-hydroxyethylsulfamide]			100	10		
100	100	NS(=O)(=O)NCC(O)c1cccc(Cl)c1 (stereo not drawn) [Example 2, 2-(3-Chlorophenyl)-2-hydroxyethylsulfamide]			> 300	> 300		
300	300	NS(=O)(=O)NCC(O)c1ccccc1F (stereo in doubt) [Example 11, (R)-3-(2-Fluorophenyl)-2-hydroxyethylsulfamide]						
1	0.1	NS(=O)(=O)NCC(O)c1ccccc1F (stereo in doubt) [Example 10, (S)-2-(2-Fluorophenyl)-2-hydroxyethylsulfamide]			300	0.1		
30	> 300	NS(=O)(=O)NC[C@@H](O)c1ccccc1Cl [Example 12, (S)-2-(2-Chlorophenyl)-2-hydroxyethylsulfamide]			30	10		
